Experimental data taken from article PMC11881437 (Molecular Medicine, 2025).
Like-named read-outs stand apart in the source and are kept apart here.

Columns and labels:
[1] = Hepatic oxidative parameters and liver/kidney histopathology, 10 days treatment; assay type: in vivo, BALB/c mice; conditions: 5 mg/kg b.w i.v.; for kidney histopathology / liver histopathology: H&E
Description: To determine the toxicity of only Orientin treatment in various doses, the mice were divided into five groups. Each group contained six animals (n = 6). Each animal of the vehicle control group (VC) was left untreated, while, mice of other four groups were administered Orientin intravenously with 1 mg/kg b.w, 3 mg/kg b.w, 5 mg/kg b.w and 10 mg/kg b.w dosage respectively for 28 days. […] All the treatments were continued for 10 days. On day 11 all the mice were sacrificed and different parameters were studied.
Values of all the parameters were calculated with respect to the amount of total protein present in liver homogenates.
Various organs and solid tumors collected after sacrificing the mice were embedded into paraffin after 10% neutral buffered formalin fixation. 4 μm sections were prepared and used for histopathological study.

HUVEC = test: Sprout (tube) formation assay with conditioned medium of CES; assay type: cell-based, human; conditions: for sprout formation: numbers and length of tubes: HUVEC, 24 h with CM of treated CES
Description: (§1) HCT116 CRC cells were grown in ultra-low attachment plate in 3dGRO™ Spheroid Medium (Sigma-Aldrich, USA) for 7 days. Spheroids enriched with CSCs were considered as CSC enriched spheres (CESs) or commonly referred as tumorospheres. After 7 days, tumorospheres were subjected to different treatments for 24 h, as per experimental protocol. Media of tumorospheres of all the treatment groups were collected, centrifuged to remove the cell debris and suspended spheres, supernatants were collected and vacuum concentrated. These supernatants were referred as conditioned medium (CM) and were stored at − 20 °C until use.
Matrigel was thawed overnight and the plate was coated with Matrigel (BD Bioscience, USA) and incubated for 1 h for polymerization. HUVECs (1 × 10^4) were seeded onto the Matrigel coated plate. After 8 h, media were changed with CM of interest. After 24 h of treatment tube formation was visualized microscopically and photographs were captured (DM 1000, Leica, Germany). The tube numbers were quantified by counting the branches between two discrete endothelial cells and length of the tubes were measured using Image J software by drawing a line along each tube and measuring the length in micrometer.

[2] = system: CSC enriched spheres (CES) derived from HCT116 cells; test: Cellular ROS, NO and LPO level in CES; assay type: cell-based, human; conditions: 24 h, 26 µM Orientin, 13 µM 5FU, 14 µM Orientin + 7 µM 5FU
Description: Reactive oxygen species (ROS) level in the cells of treated and untreated CESs was measured by 2′,7′-dichlorofluorescein diacetate (DCFH-DA) standard protocol (Bhattacharjee et al. [2014]). The production of nitric oxide (NO) were estimated by the level of stable NO metabolites, viz., nitrate (NO3^–) and nitrite (NO2^–) ions by reaction with Griess reagent (Bryan and Grisham [2007]). […]

HCT116 cells [3] = test: Annexin V/PI flow cytometry (apoptosis); assay type: cell-based, human; conditions: HCT116, 48 h, IC50 doses; untreated 7.9%
Description: Percentage of apoptotic cells were detected by Annexin V and propidium Iodide (PI) staining by flow cytometry analysis according to the protocols provided by manufacturer of the kit (Invitrogen, USA). In brief, cells were washed with PBS, suspended in binding buffer followed by incubation with Annexin V and PI. Then, the cells were analysed by using a flow cytometer (BD LSRFortessaTM X-20).

[4] = system: chick chorioallantoic membrane; test: Chick chorioallantoic membrane (CAM) assay with conditioned medium of CES; conditions: CM of treated CES, day 4 vs day 1
Description: HCT116 CRC cells were grown in ultra-low attachment plate in 3dGRO™ Spheroid Medium (Sigma-Aldrich, USA) for 7 days. Spheroids enriched with CSCs were considered as CSC enriched spheres (CESs) or commonly referred as tumorospheres. After 7 days, tumorospheres were subjected to different treatments for 24 h, as per experimental protocol. Media of tumorospheres of all the treatment groups were collected, centrifuged to remove the cell debris and suspended spheres, supernatants were collected and vacuum concentrated. These supernatants were referred as conditioned medium (CM) and were stored at − 20 °C until use. To investigate the role of CSC on angiogenesis, a modified chick chorioallantoic membrane assay was carried out. Briefly, 100 µl CM of treated and untreated spheres were mixed with 1.5 mg/ml type I collagen (Gibco, USA). 10 µl of the mixture were loaded on the piece of 13 mm Thermanox discs (Nunc, Denmark) and permitted to get polymerize. The disc was then applied to the chorioallantoic membrane of a 4 days-old embryo. After 72 h of incubation, the area around the loaded disc was photographed with a digital camera, and the numbers of newly formed vessels were counted by two observers in a double-blind manner (Min et al. [2004]).

[5] = system: CD44+/CD133+ CSC population in CES derived from HCT116 cells; test: Flow cytometry of CD44+/CD133+ cells in tumorospheres; assay type: cell-based, human; conditions: 24 h, 26 µM Orientin, 13 µM 5FU, 14 µM Orientin + 7 µM 5FU, untreated 18.4%
Description: as §1
Percentages of CD44^+/CD133^+ cell population were determined within tumorospheres and HIF1α positive cells were determined within the CD44^+/CD133^+ cell population using a flow cytometer (BD LSRFortessa™ X-20) and analyzed by BD FACSDiva™ software.

[6] = system: CSC enriched spheres (CES) derived from HCT116 cells; test: Tumorosphere (CES) diameter and number; assay type: cell-based, human; conditions: 24 h, 5FU vs control, Orientin and combination vs 5FU
Description: as §1

HCT116 cells [7] = test: MTT cell viability assay; assay type: cell-based, human; conditions: for IC50: Homo sapiens
Description: HCT116 cells (1 × 10^3 cells/well) were seeded in 96-well plates and cell viability was determined using MTT (Sigma-Aldrich, USA). […] MTT (0.5 mg/ml) was added to the cells after 48 h of treatment and incubated for 3 h in dark at 37 °C. The generated formazan complexes were dissolved in DMSO and the absorbance were measured at 550 nm using a spectrophotometer (Infinite® 200 PRO, TECAN, Switzerland) (Bhowmik et al. [2013]).

HCT116 cells [8] = test: Atomic force microscopy of cell morphology; assay type: cell-based, human; conditions: HCT116, 24 h; 26 µM Orientin, 13 µM 5FU, 14 µM Orientin + 7 µM 5FU
Description: The material properties and dimensions of the probe used in contact mode were as follows: resonance frequency of 13 kHz (± 4 kHz), force constant of 0.2 N/m (± 0.14 N/m), cantilever length of 450 µm (± 10 µm), cantilever width of 38 µm (± 5 µm), cantilever thickness of 2 µm (± 1 µm), tip radius of 5 nm (± 1 nm), and tip height of 17 µm (± 2 µm). The scan area depends on the size of the cancer cell and ranged from 20 × 10–30 × 20 µm^2. Image processing and data analysis were performed using Picoview 1.10 software.

| SMILES | hepatic LPO, ROS and NO [1] | hepatic GSH and activity of GST, GPx, SOD and CAT ([1]; 5FU vs vehicle control, combination vs 5FU) | kidney histopathology [1] | liver histopathology [1] | sprout formation: numbers and length of tubes (HUVEC) | ROS, NO and LPO production in tumorospheres [2] | percentage of apoptotic cells (HCT116 cells [3]) [%] | number of blood vessels formed in CAM [4] | CD44+/CD133+ cell population [5] [%] | diameter of spheres [6] | number of spheres [6] | reduction of IC50 in combination compared to individual treatment (HCT116 cells [7]; HCT116, MTT, 48 h) | IC50 (HCT116 cells [7]; HCT-116, HCT116, MTT, 48 h, used separately, read-out: IC50) [µM] | cell morphology by AFM (HCT116 cells [8]) | number of sprouting and length of tubes, comparison with VEGFA neutralizing antibody (HUVEC; HUVEC with CM of treated CES, 5 µg/ml VEGFA neutralizing antibody, 26 µM Orientin) | IC50 (HCT116 cells [7]; HCT-116, 48 h) [µM] |
| --- | --- | --- | --- | --- | --- | --- | --- | --- | --- | --- | --- | --- | --- | --- | --- | --- |
| O=c1[nH]cc(F)c(=O)[nH]1 [5FU, 5-Fluorouracil, reference compound] | induce | reduced | distorted Bowman’s capsule, glomeruli, blood and cellular infiltration | distorted central vein, necrosis, cellular and blood infiltration | instigated sprout formations by increasing the numbers and length of tubes | increased | 54.5 | increase in number of blood vessel formation | 22.3 | significantly increased | significantly increased | approximately 50% | 13 | cell shrinkage, distortion, nuclear condensation and fragmentation, membrane blebbing and morphological changes of cellular bodies | – | – |
| O=c1cc(-c2ccc(O)c(O)c2)oc2c([C@@H]3O[C@H](CO)[C@@H](O)[C@H](O)[C@H]3O)c(O)cc(O)c12 [Orientin] | – | – | did not induce any toxicity | remained normal | remarkably reduced | decrease | 49.3 | Non-significant change | 13.5 | significant decreases | significant decreases | approximately 50% | – | cell shrinkage, distortion, nuclear condensation and fragmentation, membrane blebbing and morphological changes of cellular bodies | same level of inhibition | 26 |
